pKi: −log10 of the molar value. Like-named read-outs stand apart in the source and are kept apart here.
Assays:
[1] = target: N-methyl-D-aspartate (NMDA) receptor; conditions: weak uncompetitive antagonist; cited from earlier work
sigma-1 = sigma-1 (Homo sapiens, UniProt Q99720); conditions: sigma-1 agonist; cited from earlier work
[2] = target: T1, norepinephrine transporter (Homo sapiens, UniProt P23975); conditions: affinity; cited from earlier work
[3] = target: T1, norepinephrine transporter; conditions: inhibits uptake of norepinephrine; cited from earlier work
clinical [4] = assay: clinical
Source text: (§1) Subjects attended a Screening visit at the clinic within 14 days prior to enrolment (Day 1). If eligible, the subjects were enrolled on Day 1 to one of 4 Groups (Day 1 occurred on different days for different groups to ensure the availability of beds in the units for those dates). Subjects returned to the clinic daily for out-patient dosing until the second day of (morning) PK sampling (this day differed between treatment groups). After the second day (morning) PK sampling, subjects were admitted to the clinic that night before (full) PK sampling the next day. Subjects stayed in the in-patient unit until the last day of PK sampling (length of time differed between treatment groups based on the amount of time for the study medications to reach steady state).
(§2) Samples were collected for PK evaluation up to 36 hours post the last dose of study medication.
(§3) Paroxetine 20 mg tablets. Duloxetine 20 mg capsules. Subjects received study medication as per the study schedule, provided above in Methodology.
(§4) Each dose (consisting of one capsule/tablet) was administered orally with 240 mL of room temperature water. Morning doses were preceded by an overnight fast (i.e., at least 8 hours) from food (not including water) and evening doses were preceded by at least a 2-hour fast from food. All doses were followed by a fast from food (not including water) for at least 2 hours post-dose.
(§5) Pre-dose and 0.5, 1, 2, 3, 4, 6, 8, and 12 hours after the morning dose on the last day of single medication dosing. For Group 1 only, as paroxetine was administered once a day, an additional sample was taken at 24 hours after the last day of single dosing (prior to the first combined dosing).
(§6) Pre-dose and 0.5, 1, 2, 3, 4, 6, 8, 12, 24, and 36 hours after the morning dose on the last day of combined dosing
(§7) Prior to the morning dose on Day 4 (for Groups 2 and 4 only) and on each of the 2 days prior to the last day of single medication dosing and the last day of combined dosing.
(§8) Mean plasma concentration-time profiles were plotted by treatment on linear and semi-logarithmic scales. In addition, non-compartmental PK parameters were derived. […] The point estimates and confidence limits were determined using the log transformed data and then transformed back to the original scale. The analysis was performed using analysis of variance with the terms Subject and Treatment.

healthy subjects = assay: Example 6 Phase 1 drug interaction study: safety (adverse events); assay type: in vivo, human
Experimental: Safety was evaluated in all subjects throughout the study and included adverse event (AE) reporting, electrocardiograms (ECGs), laboratory evaluations, physical examinations, and vital signs. The Columbia-Suicide Severity Rating Scale (C-SSRS) was used to prospectively assess suicidal ideation and behavior throughout the study.
Safety: Safety was evaluated in all subjects throughout the study and included adverse event (AE) reporting, electrocardiograms (ECGs), laboratory evaluations, physical examinations, and vital signs. The Columbia-Suicide Severity Rating Scale (C-SSRS) was used to prospectively assess suicidal ideation and behavior throughout the study as part of the safety assessments per the FDA guidance, “Suicidal Ideation and Behavior: Prospective Assessment of Occurrence in Clinical Trials.”
Safety: Safety variables, including incidence of adverse events, vital signs, ECG parameters, and clinical laboratory results, were summarized by treatment. Responses to the C-SSRS questionnaire were listed for each subject. Individual subject profiles were presented for any questions with an abnormal response.

clinical [5] = assay: clinical; remark: listed apart in the source
Source text: as §1, §2, §3, §4, §5, §6, §7, §8

[6] = Toxicology studies with d6-DM and 13-week toxicity study with d6-DM/Q; assay type: in vivo; conditions: at comparable exposures; adverse clinical signs associated with CNS effects
[7] = test system: receptors responsible for modulation of glutamate, monoamine, sigma-1, and nicotinic cholinergic pathways; assay: Pharmacology studies with deuterated DM
CYP2D6 [8] = target: T2, CYP2D6 (Homo sapiens, UniProt P10635); conditions: in vitro metabolism, various species including human
CYP2D6 [9] = target: T2, CYP2D6; conditions: cited from earlier work
[10] = Group 1, Day 20 (combined dosing paroxetine + AVP-786), plasma, mean
[11] = Group 1, Day 20 (combined dosing paroxetine + AVP-786), plasma, median
[12] = Group 2, Day 8 (AVP-786 single treatment), plasma, mean
[13] = Group 2, Day 8 (AVP-786 single treatment), plasma, median
[14] = Group 2, Day 20 (combined dosing AVP-786 + paroxetine), plasma, mean
[15] = Group 2, Day 20 (combined dosing AVP-786 + paroxetine), plasma, median
[16] = Group 2: AVP-786-30/4.75 BID + paroxetine 20 mg once daily vs AVP-786 alone, steady state, N 14
[17] = Group 3, Day 13 (combined dosing duloxetine + AVP-786), plasma, mean
[18] = Group 3, Day 13 (combined dosing duloxetine + AVP-786), plasma, median
[19] = Group 4, Day 8 (AVP-786 single treatment), plasma, mean
[20] = Group 4, Day 8 (AVP-786 single treatment), plasma, median
[21] = Group 4, Day 13 (combined dosing AVP-786 + duloxetine), plasma, mean
[22] = Group 4, Day 13 (combined dosing AVP-786 + duloxetine), plasma, median
[23] = Group 4: AVP-786-30/4.75 BID + duloxetine 20 mg BID vs AVP-786 alone, steady state, N 11

T2 sequence (P10635 whole entry): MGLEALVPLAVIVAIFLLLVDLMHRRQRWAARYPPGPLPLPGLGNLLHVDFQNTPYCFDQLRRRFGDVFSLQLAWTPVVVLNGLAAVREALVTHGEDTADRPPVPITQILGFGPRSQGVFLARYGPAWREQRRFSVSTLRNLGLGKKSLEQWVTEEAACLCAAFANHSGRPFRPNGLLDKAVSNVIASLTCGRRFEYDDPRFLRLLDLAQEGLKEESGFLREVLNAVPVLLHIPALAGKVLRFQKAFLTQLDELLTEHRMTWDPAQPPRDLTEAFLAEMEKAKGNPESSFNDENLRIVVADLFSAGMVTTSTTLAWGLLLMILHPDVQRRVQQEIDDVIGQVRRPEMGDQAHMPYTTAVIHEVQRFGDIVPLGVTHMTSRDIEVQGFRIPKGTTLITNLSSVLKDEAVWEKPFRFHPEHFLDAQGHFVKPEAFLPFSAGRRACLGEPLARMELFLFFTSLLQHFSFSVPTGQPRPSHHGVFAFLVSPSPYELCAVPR
T1 sequence (P23975 whole entry, species assumed): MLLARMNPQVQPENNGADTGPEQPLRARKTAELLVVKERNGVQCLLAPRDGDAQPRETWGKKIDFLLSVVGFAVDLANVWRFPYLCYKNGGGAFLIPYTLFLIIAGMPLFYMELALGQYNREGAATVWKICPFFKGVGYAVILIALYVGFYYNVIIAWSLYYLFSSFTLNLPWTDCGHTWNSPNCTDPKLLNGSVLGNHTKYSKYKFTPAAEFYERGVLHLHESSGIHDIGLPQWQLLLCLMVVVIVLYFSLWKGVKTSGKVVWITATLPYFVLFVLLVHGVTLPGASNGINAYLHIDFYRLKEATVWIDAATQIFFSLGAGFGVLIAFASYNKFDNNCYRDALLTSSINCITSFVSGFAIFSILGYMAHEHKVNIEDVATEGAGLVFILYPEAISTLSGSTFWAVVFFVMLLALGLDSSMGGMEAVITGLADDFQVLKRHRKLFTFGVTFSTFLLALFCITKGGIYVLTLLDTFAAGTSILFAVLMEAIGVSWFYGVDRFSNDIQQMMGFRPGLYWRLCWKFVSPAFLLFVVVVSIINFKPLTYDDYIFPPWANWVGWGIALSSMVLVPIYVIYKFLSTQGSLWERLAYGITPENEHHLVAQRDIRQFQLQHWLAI
Sequence of sigma-1 (Q99720 whole entry): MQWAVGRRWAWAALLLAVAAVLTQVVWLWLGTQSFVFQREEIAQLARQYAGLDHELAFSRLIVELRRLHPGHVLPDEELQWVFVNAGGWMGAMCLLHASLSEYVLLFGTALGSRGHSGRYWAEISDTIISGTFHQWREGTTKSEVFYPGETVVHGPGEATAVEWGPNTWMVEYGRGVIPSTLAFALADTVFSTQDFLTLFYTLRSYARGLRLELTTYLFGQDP

COc1ccc2c(c1)[C@@]13CCCC[C@H]1[C@@H](C2)N(C)CC3 [DM, (+)-3-methoxy-N-methylmorphinan]
pKi [1]: 5.82 | pKi (sigma-1): 6.70 | pKi [2]: 4.89 | pKi [3]: […]

CNCC[C@H](Oc1cccc2ccccc12)c1cccs1 [Duloxetine, duloxetine, reference compound]
AUC0-12 (clinical [4]; both, human, in vivo): 194 ng·h/mL | t1/2 (clinical [4]; both, human, in vivo): 5.04 h | Cmax (clinical [4]; both, human, in vivo, Cmax): 26.1 ng/mL | Tmax (clinical [4]; both, human, in vivo, Tmax): 4 h | treatment-emergent AEs reported, subjects (healthy subjects; Groups 3 and 4, healthy subjects): 43%

Fc1ccc([C@@H]2CCNC[C@H]2COc2ccc3c(c2)OCO3)cc1 [Paroxetine, paroxetine, reference compound]
AUC(0-t) (clinical [5]; both, human, in vivo, AUC0-24 (PAR)): 452 ng·h/mL | Cmax (clinical [5]; both, human, in vivo, Cmax): 29.5 ng/mL | Tmax (clinical [5]; both, human, in vivo, Tmax): 4 h | treatment-emergent AEs reported, subjects (healthy subjects; Groups 1 and 2, healthy subjects): 50%

C=C[C@H]1C[N@]2CC[C@@H]1C[C@@H]2[C@@H](O)c1ccnc2ccc(OC)cc12 [Quinidine, quinidine]
AUC0-12 (clinical [5]; both, human, in vivo): 146 ng·h/mL | Cmax (clinical [5]; both, human, in vivo): 23.1 ng/mL | Tmax (clinical [5]; both, human, in vivo): 1.00 h | AUC0-12 (clinical [4]; both, human, in vivo): 160 ng·h/mL | Cmax (clinical [4]; both, human, in vivo): 24.9 ng/mL | Tmax (clinical [4]; both, human, in vivo): 1.00 h

[2H]C([2H])([2H])N1CCC23CCCCC2C1Cc1ccc(O)cc13 (stereo not shown) [d3-DX, d3-dextrorphan]
steady state systemic exposure relative to AVP-786 alone (clinical [5]; AVP-786 co-administered with paroxetine): approximately 75% | AUC0-12 (clinical [5]; [10]): 820 ng·h/mL | Cmax (clinical [5]; [10]): 87.2 ng/mL | Tmax (clinical [5]; [11]): 1.00 h | AUC0-12 (clinical [5]; [12]): 1142 ng·h/mL | Cmax (clinical [5]; [12]): 117 ng/mL | Tmax (clinical [5]; [13]): 3.00 h | AUC0-12 (clinical [5]; [14]): 820 ng·h/mL | Cmax (clinical [5]; [14]): 94.1 ng/mL | Tmax (clinical [5]; [15]): 0.50 h | AUC0-12 Ratio of LS Means (clinical [5]; [16]): 71.6% | Cmax Ratio of LS Means (clinical [5]; [16]): 77.1% | AUC0-12 (clinical [4]; [17]): 1295 ng·h/mL | Cmax (clinical [4]; [17]): 128 ng/mL | t1/2 (clinical [4]; [17]): 21.7 h | Tmax (clinical [4]; [18]): 3.00 h | AUC0-12 (clinical [4]; [19]): 1267 ng·h/mL | Cmax (clinical [4]; [19]): 127 ng/mL | Tmax (clinical [4]; [20]): 3.00 h | AUC0-12 (clinical [4]; [21]): 1224 ng·h/mL | Cmax (clinical [4]; [21]): 121 ng/mL | t1/2 (clinical [4]; [21]): 20.0 h | Tmax (clinical [4]; [22]): 3.00 h | AUC0-12 Ratio of LS Means (clinical [4]; [23]): 97.6% | Cmax Ratio of LS Means (clinical [4]; [23]): 96.3%

[2H]C([2H])([2H])Oc1ccc2c(c1)[C@]13CCCC[C@@H]1[C@H](C2)N(C([2H])([2H])[2H])CC3 [d6-DM]
AUC0-12 (clinical [5]; [10]): 943 ng·h/mL | Cmax (clinical [5]; [10]): 93.5 ng/mL | t1/2 (clinical [5]; [10]): 18.5 h | Tmax (clinical [5]; [11]): 2.00 h | AUC0-12 (clinical [5]; [12]): 467 ng·h/mL | Cmax (clinical [5]; [12]): 54.6 ng/mL | Tmax (clinical [5]; [13]): 3.00 h | AUC0-12 (clinical [5]; [14]): 1027 ng·h/mL | Cmax (clinical [5]; [14]): 100 ng/mL | t1/2 (clinical [5]; [14]): 17.3 h | Tmax (clinical [5]; [15]): 3.00 h | AUC0-12 (clinical [4]; [17]): 692 ng·h/mL | Cmax (clinical [4]; [17]): 72.7 ng/mL | t1/2 (clinical [4]; [17]): 13.3 h | Tmax (clinical [4]; [18]): 4.00 h | AUC0-12 (clinical [4]; [19]): 540 ng·h/mL | Cmax (clinical [4]; [19]): 59.0 ng/mL | Tmax (clinical [4]; [20]): 3.00 h | AUC0-12 (clinical [4]; [21]): 605 ng·h/mL | Cmax (clinical [4]; [21]): 66.8 ng/mL | t1/2 (clinical [4]; [21]): 12.6 h | Tmax (clinical [4]; [22]): 3.00 h | dose-limiting toxicities (DLTs) of d6-DM and DM [6]: comparable | effect of deuteration on pharmacology [7]: […] | metabolites identified compared to DM (CYP2D6 [8]): no unique metabolites

CC(CCc1ccccc1)NCC(O)c1ccc(O)c(C(N)=O)c1 (stereo not shown) [labetalol]
pKi (CYP2D6 [9]): ≥ 4.30

Cc1cccc(C)c1OCC(C)N (stereo not shown) [mexiletine]
pKi (CYP2D6 [9]): ≥ 4.30

CNCCC=C1c2ccccc2CCc2ccccc21 [nortriptyline]
pKi (CYP2D6 [9]): ≥ 4.30

C=CCOc1ccccc1OCC(O)CNC(C)C (stereo not shown) [oxprenolol]
pKi (CYP2D6 [9]): ≥ 4.30

From patent US20240082237A1, “PHARMACEUTICAL COMPOSITIONS COMPRISING A DEXTROMETHORPHAN COMPOUND AND QUINIDINE FOR THE TREATMENT OF AGITATION IN DEMENTIA” (priority 2014, published 2024)
